Measured values published in US4863906A, “2'-deoxy-5-ethynyluridine-3',5'-diestens for treatment of VZV and CMV infections” (Burroughs Wellcome Co., priority 1985, dated 1989).
Read-outs that look alike come from different tables or passages of the source.

Key:
[1] = test system: Herpes simplex type 1 (HSV1); assay: HSV1 assay in Vero cells (similar to HCMV plaque reduction assay); assay type: cell-based; settings: read-out: IC50 HSV1
Method: (§1) Human cytomegalovirus (HCMV) was assayed in monolayers of either MRC5 cells (human embryonic lung) or Detroit 532 cells (human foreskin fibroblasts) in multiwell trays. Activity of compounds was determined in the plaque reduction assay, in which a cell monolayer was infected with a suspension of HCMV, and then overlaid with nutrient agarose in the form of a gel to ensure that there was no spread of virus throughout the culture. A range of concentrations of compound of known molarity was incorporated in the nutrient agarose overlay. Plaque numbers at each concentration were expressed as percentages of the control and a dose-response curve was drawn. From this curve the 50% inhibitory concentration (IC50) was estimated.
Herpes simplex type 1 (HSV1) was assayed in Vero cells in a similar method to that described for the HCMV assay.

[2] = test system: Human cytomegalovirus (HCMV); assay: HCMV plaque reduction assay in MRC5 or Detroit 532 cells; assay type: cell-based; settings: Human betaherpesvirus 5, MRC5, MRC5 or Detroit 532 cells
Method: as §1

[3] = Cell toxicity: cell growth inhibition assay in Vero cells (MTT uptake); assay type: cell-based; settings: monkey, 50% inhibition of cell viability at 96 hours, read-out: CCID50 at 96 hr.
Method: Cell toxicity was assessed in a cell growth inhibition assay. Subconfluent cultures of Vero cells grown on 96-well microtiter dishes were exposed to different dilutions of drug, and cell viability determined daily on replicate cultures using uptake of a tetrazolium dye (MTT). The concentration required for a 50% inhibition of cell viability at 96 hours is termed CCID50.

[4] = test system: Varicella zoster virus (VZV); assay: VZV assay in MRC5 cells (similar to HCMV plaque reduction, without agarose overlay); assay type: cell-based
Method: as §1
Varicella zoster virus (VZV) was assayed in MRC5 cells by a similar method to that for HCMV with the omission of the agarose overlay.

[5] = test system: vaccinia; settings: Walker et al. 1978; UK 1 601 020; cited from earlier work
[6] = test system: herpes simplex viruses; settings: Walker et al. 1978; UK 1 601 020; cited from earlier work
[7] = test system: certain DNA viruses; assay: Antiviral activity against certain DNA viruses (general statement); settings: DNA viruses other than vaccinia and herpes simplex
[8] = Human alphaherpesvirus 1, Vero cells
[9] = Human alphaherpesvirus 3, MRC5, MRC5 cells, read-out: IC50 VZV

Row | SMILES | IC50 [1, 8] | IC50 [2] | CC50 at 96 h ([3]; vero cells) | IC50 [4, 9] | further results
1 | C#Cc1cn([C@H]2C[C@H](OC(C)=O)[C@@H](COC(C)=O)O2)c(=O)[nH]c1=O [Acetyl/Acetyl, 2'-Deoxy-3'-5'-di-O-acetyl-5-ethynyluridine] | > 20 µM | – | – | – | –
2 | C#Cc1cn([C@H]2C[C@H](OC(=O)c3ccccc3)[C@@H](COC(=O)c3ccccc3)O2)c(=O)[nH]c1=O [Benzoyl/Benzoyl, 2'-Deoxy-3',5'-di-O-benzoyl-5-ethynyluridine] | > 20 µM | 4.7 µM | > 100 µM | > 20 µM | –
3 | C#Cc1cn([C@H]2C[C@H](OC(=O)C3CC3)[C@@H](COC(=O)C3CC3)O2)c(=O)[nH]c1=O [Cyclopropanoyl/Cyclopropanoyl, 2'-Deoxy-3',5'-di-O-cyclopropanoyl-5-ethynyluridine] | > 20 µM | 2 µM | > 100 µM | 24 µM | –
4 | C#Cc1cn([C@H]2C[C@H](O)[C@@H](COC(=O)c3ccccc3)O2)c(=O)[nH]c1=O [H/Benzoyl, 5'-O-Benzoyl-2'-deoxy-5-ethynyluridine] | > 20 µM | 0.3 µM | 1.3 µM | 0.7 µM | –
5 | C#Cc1cn([C@H]2C[C@H](O)[C@@H](COC(=O)C3CC3)O2)c(=O)[nH]c1=O [H/Cyclopropanoyl, 5'-O-Cyclopropanoyl-2'-deoxy-5-ethynyluridine] | > 20 µM | 0.9 µM | 15 µM | 6.5 µM | –
6 | C#Cc1cn([C@H]2C[C@H](O)[C@@H](CO)O2)c(=O)[nH]c1=O [H/H, 2'-Deoxy-5-ethynyluridine] | – | – | – | – | Activity against vaccinia [5]: only moderate activity; CC50 at 96 h [3]: 0.3 to 3 µM; IC50 ([1]; Human alphaherpesvirus 1, Vero): 4.5 µM; Activity against herpes simplex viruses [6]: only moderate activity; IC50 ([4]; Human alphaherpesvirus 3, MRC5, read-out: IC50 VZV): 0.06 to 0.3 µM; Activity against certain DNA viruses [7]: very potent activity
7 | C#Cc1cn([C@H]2C[C@H](O)[C@@H](COC(=O)CCCCCCC)O2)c(=O)[nH]c1=O [H/Octanoyl, 2'-Deoxy-5-ethynyl-5'-O-octanoyluridine] | – | 2.2 µM | 1.8 µM | < 0.2 µM | –
8 | C#Cc1cn([C@H]2C[C@H](O)[C@@H](COC(=O)C(C)(C)C)O2)c(=O)[nH]c1=O [H/Pivaloyl, 2'-Deoxy-5-ethynyl-5'-O-pivaloyluridine] | > 20 µM | 0.4 µM | 10.2 µM | 0.6 µM | –
9 | C#Cc1cn([C@H]2C[C@H](O)[C@@H](COC(=O)c3cccc(Cl)c3)O2)c(=O)[nH]c1=O [H/m-Cl Benzoyl] | – | 0.46 µM | 19 µM | < 0.2 µM | –
10 | C#Cc1cn([C@H]2C[C@H](O)[C@@H](COC(=O)c3ccc(OC)cc3)O2)c(=O)[nH]c1=O [H/p-Anisoyl, 5'-O-p-Anisoyl-2'-Deoxy-5-ethynyluridine] | > 20 µM | 2.8 to 3.7 µM | 3 µM | > 20 µM | –
11 | C#Cc1cn([C@H]2C[C@H](O)[C@@H](COC(=O)c3ccc(C)cc3)O2)c(=O)[nH]c1=O [H/p-Toluoyl, 2'-Deoxy-5-ethynyl-5'-O-toluoyluridine] | > 20 µM | 3.4 µM | 0.8 µM | > 20 µM | –
12 | C#Cc1cn([C@H]2C[C@H](O)[C@@H](COS(=O)(=O)c3ccc(C)cc3)O2)c(=O)[nH]c1=O [H/p-Tosyl] | – | 5.6 µM | – | – | –
13 | C#Cc1cn([C@H]2C[C@H](OS(C)(=O)=O)[C@@H](COS(C)(=O)=O)O2)c(=O)[nH]c1=O [Methanesulphonyl/Methanesulphonyl, 2'-Deoxy-3'-5'-di-O-methanesulphonyl-5-ethynyluridine] | > 20 µM | > 50 µM | – | 16 µM | –
14 | C#Cc1cn([C@H]2C[C@H](OC(=O)C(C)(C)C)[C@@H](COC(=O)C(C)(C)C)O2)c(=O)[nH]c1=O [Pivaloyl/Pivaloyl, 2'-Deoxy-5-ethynyl-3',5'-di-O-pivaloyl uridine] | > 20 µM | 2 µM | > 100 µM | 5.5 µM | –
15 | C#Cc1cn([C@H]2C[C@H](OC(=O)c3cccc(Cl)c3)[C@@H](COC(=O)c3cccc(Cl)c3)O2)c(=O)[nH]c1=O [m-Cl Benzoyl/m-Cl Benzoyl] | – | 2.7 µM | > 100 µM | 1.1 µM | –
16 | C#Cc1cn([C@H]2C[C@H](OC(=O)c3ccc(OC)cc3)[C@@H](COC(=O)c3ccc(OC)cc3)O2)c(=O)[nH]c1=O [p-Anisoyl/p-Anisoyl, 2'-Deoxy-3',5'-di-O-p-anisoyl-5-ethynyluridine] | > 20 µM | 20.7 µM | > 100 µM | > 20 µM | –
17 | C#Cc1cn([C@H]2C[C@H](OC(=O)c3ccc(C)cc3)[C@@H](COC(=O)c3ccc(C)cc3)O2)c(=O)[nH]c1=O [p-Toluoyl/p-Toluoyl, 2'-Deoxy-3',5'-di-O-p-toluoyl-5-ethynyluridine] | > 20 µM | – | > 100 µM | > 20 µM | –
